This is an account of results in patent publication US20100292183A1, “TETRACYCLINE AND USES THEREOF” (priority 2009, published 2010).

The conditions of data set [1]: doses between 12.5 and 300 mg twice daily; cited from earlier work.
Data set [2] has as its system induced mouse models of atherosclerosis. As to the kind of experiment: induced mouse models of atherosclerosis. It counts as in vivo, mice. An excerpt: Inducing atherosclerotic plaque development in mice is disclosed in details in U.S. patent application Ser. No. 12/286,368, which is herein incorporated by reference in its entirety. These mouse models are used for testing tetracycline-acenocoumorol conjugate to determine their efficacy both on reducing progression of plaque development and symptoms of chronic inflammation. Mice purchased from vendors are used for in vivo atherosclerotic plaque development by multiple doses of plaque complexes by intra-peritoneal and intravenous routes as described U.S. patent application Ser. No. 12/286,368. […] Ovastatin, an established anti-atherosclerotic drug (Schwartz et al, 2001) is used for control purposes in these studies and administered by oral route.
Ovastatin, tetracycline, clopidogrel or any anti-coagulant individually and tetracycline-clopidogrel (0.1-5 mg/kg per day) are orally administrated to the symptomatic and asymptomatic atherosclerotic mice models for 8 to 12 weeks. Following administration of the drugs, mice with asymptomatic plaque development are euthanized and blood collected via cardiac puncture. The blood samples will be used test clotting or blood coagulation test to analyse anti-coagulation efficacy of drugs used.

With `[H]/N=C(/N)c1ccc(NCc2nc3cc(C(=O)N(CCC(=O)O)c4ccccn4)ccc3n2C)cc1` [dabigatran], the safety profile entry in data set [1] is “good safety profile”.

On to `CC[C@H](C)C(=O)O[C@H]1C[C@@H](C)C=C2C=C[C@H](C)[C@H](CC[C@@H]3C[C@@H](O)CC(=O)O3)[C@H]21` [ovastatin], for which, in data set [2] (asymptomatic mice model, after treatment), the “plaque accumulation, histochemical analysis of heart tissues” value is “reduced plaque accumulation”. Moreover, the “symptoms of plaque inflammation” value in data set [2] (mice with plaque induced chronic inflammation, compared to control animal without treatment) was “reduced symptoms of plaque inflammation”.
